For one molecule, half-life results are on record in paper PMC10791743, “Selective CK1α degraders exert antiproliferative activity against a broad range of human cancer cell lines” (Nature Communications, 2024).

The data set is described as follows: Metabolic stability in cryopreserved hepatocytes, mouse. The conditions noted are these: mouse, cryopreserved hepatocytes; read-out: Hepatocyte stability t1/2. It is filed as in vitro ADME. As to the method:
page 34: UHPLC-MS/MS System: Chromatographic separation was performed on an Acquity UPLC BEH […] with 6500+ Qtrap system. […] software suite. The UPLC column was maintained at 55 °C. Mobile phase A was 0.1% formic acid in MilliQ H2O and Mobile phase B was 0.1% formic acid in acetonitrile. The flow rate was 0.9 […] The mass spectrometer was operated in positive-ion mode with electrospray ionization. MRM transition m/z […] plasma stability and plasma protein binding. The following MS parameters were employed for analyte measurements: ion spray voltage 5 kV, temperature 550 °C, gas 1 and gas 2 were 60, entrance potential (EP): 10 V, declustering potential (DP): 50 V, collision energy (CE): 27 V, and collision cell exit potential (CXP): 16 V. Metabolic Stability in mouse and human cryopreserved hepatocytes. 10 mM test compounds were provided by Compound Sample Group. Diluted 10 mM test compounds and 30 mM positive control compounds (7-ethoxycoumarin) to 1 mM and 3 mM with DMSO in 96-well plates. Diluted 1 mM test compounds and 3 mM positive control compounds to 100 μM and 300 μM dosing solutions with ACN. Cryopreserved cells were thawed, isolated and suspended in Incubation Medium, then diluted with pre-warmed Incubation Medium to 0.5 × 10^6cells/mL. Added 198 μL of pre-warmed cell suspensions in 96 -well plates. Transferred 125 μL of stop solution (acetonitrile containing 200 ng/mL tolbutamide and 200 ng/mL labetalol as internal standards) in a set of pre- labeled 96-well plates. Spike d 2 μL dosing solution to each well of 96 -well plates in duplicates. For T0 Samples, mix ed to achieve a homogenous suspension for about 1 min, then immediately transferred 25 μL of each sample into well containing 125 μL of ice -cold stop solution followed by mixing. Incubated all plates at 37°C in a 95% humidified incubator at 5% CO 2 to start the reactions page 35: with constant shaking at about 600 rpm. At 15, 30, 60 and 90 min, mixed samples and then transferred 25 μL of each sample at each time point to well containing 125 μL of ice -cold stop solution followed by mixing. Medium Control (MC) sample plates (labeled as T0-MC and T90- MC) were prepared at T0 and T90 by adding the same components to each well except cell suspensions. At each corresponding time point, stopped the reactions by removing the plates from incubator and mixing with 125 μL of ice-cold stop solution. Vortexed the plates immediately on a plate shaker at 500 rpm for 10 minutes. Then, centrifuge d all sample plates at 3220 x g for 20 min at 4°C. After centrifugation, 80 μL/well of supernatant in the sample plates were transferred to another set of pre-labeled 96-well plates which containing 240 μL of ultra pure water according to the plate map. Analytical plates were sealed and stored at 4°C until LC-MS/MS analysis. Thawing Medium: Williams' Medium E containing 5% fetal bovine serum and 30% Perc oll solution and other supplements. Incubation Medium: Williams' Medium E (no phenol red) containing 2 mM L-Glutamine and 25 mM HEPES. Stop Solution: Acetonitrile containing 200 ng/mL tolbutamide and labetalol as internal standards. Dilution Solution: Ultra-pure water. The remaining percents of test articles after incubation were calculated by the follow equations: Equation ( 6): Use equation of first order kinetics [NT] […] The data was […] concatenated with a reversed decoy database for evaluating False Discovery Rate (FDR). […]

For `O=C1CCC(N2Cc3cc(Nc4noc5ccccc45)ccc3C2=O)C(=O)N1` (stereo not shown) [SJ3149], the half-life at 1 µM was greater than 3.6 h.
